In EPA's ToxRefDB 2:

Legend:
dog [1] = details: Chronic toxicity; beagle; Oral; Feed; dose end: 52 week; group: systemic; systemic / in life observation / body weight / body weight gain + systemic / organ weight / heart / absolute + systemic / organ weight / …
rat [2] = details: Combined chronic toxicity/carcinogenicity, sprague dawley, Oral, Feed, dose end: 104 week, group: systemic
rat [3] = details: Multigenerational reproductive toxicity study, sprague dawley, Oral, Feed, dose end: 2 generation
mouse [4] = details: Carcinogenicity; cd1; Oral; Feed; dose end: 18 month; group: systemic; systemic / hematology / erythrocyte (rbc) count differential / erythrocyte (rbc) + systemic / hematology / heinz body / heinz body + …
rat [5] = details: Subchronic oral toxicity in rodents, sprague dawley, Feed, dose end: 90 day, group: systemic, systemic / hematology / erythrocyte (rbc) count differential / erythrocyte (rbc) + systemic / hematology / hematocrit (hct) / hematocrit (…
dog [6] = details: Chronic toxicity, beagle, Oral, Capsule, dose end: 52 week, group: systemic
rat [7] = details: Subchronic oral toxicity in rodents, sprague dawley, Feed, dose end: 90 day, group: systemic
rat [8] = details: Combined chronic toxicity/carcinogenicity, other, Oral, Feed, dose end: 104 week, group: systemic
mouse [9] = details: Subchronic oral toxicity in rodents, cd1, Feed, dose end: 90 day, group: systemic
dog [10] = details: Subchronic oral toxicity in nonrodent, beagle, Feed, dose end: 13 week
rat [11] = details: Combined chronic toxicity/carcinogenicity, sprague dawley, Oral, Feed, dose end: 24 month
rat [12] = details: Multigenerational reproductive toxicity study, other, Oral, Feed, dose end: 2 generation
rat [13] = details: Subchronic oral toxicity in rodents, sprague dawley, Feed, dose end: 13 week
mouse [14] = details: Subchronic oral toxicity in rodents, cd1, Feed, dose end: 90 day, group: cholinesterase
dog [15] = details: Chronic toxicity, beagle, Oral, Feed, dose end: 52 week, group: cholinesterase
rabbit = details: Prenatal developmental toxicity study, new zealand white, Oral, Gavage/Intubation, dose end: 19 GD
mouse [16] = details: Carcinogenicity, cd1, Oral, Feed, dose end: 78 week
[17] = systemic / in life observation / body weight / body weight + systemic / clinical chemistry / phosphorus / phosphate + systemic / clinical …
[18] = group: offspring, systemic / organ weight / spleen / absolute + systemic / organ weight / spleen / relative to body weight
[19] = group: offspring, systemic / organ weight / spleen / absolute + systemic / organ weight / spleen / relative to body weight + systemic / organ weight / liver…
[20] = group: parental, systemic / organ weight / spleen / absolute + systemic / organ weight / spleen / relative to body weight
[21] = group: parental, systemic / organ weight / spleen / relative to body weight + systemic / organ weight / spleen / absolute
[22] = group: reproductive, reproductive / offspring survival early / litter size / litter size
[23] = systemic / hematology / jolly bodies / jolly bodies + systemic / hematology / mean corpuscular hemoglobin concentration (mchc) / mean …
[24] = systemic / hematology / mean corpuscular hemoglobin concentration (mchc) / mean corpuscular hemoglobin concentration (mchc)
[25] = systemic / hematology / erythrocyte (rbc) count differential / erythrocyte (rbc) + systemic / hematology / hemoglobin (hgb) / hemoglobin (…
[26] = systemic / hematology / methemoglobin / methemoglobin + systemic / hematology / reticulocyte / reticulocyte + systemic / pathology …
[27] = systemic / organ weight / spleen / absolute + systemic / urinalysis / volume / volume
[28] = systemic / organ weight / spleen / absolute + systemic / organ weight / spleen / relative to body weight + systemic / hematology / …
[29] = group: cholinesterase, cholinesterase / cholinesterase / cholinesterase / plasma cholinesterase (che)
[30] = group: systemic, systemic / clinical chemistry / protein / protein + systemic / in life observation / clinical signs / emaciation + systemic / in life …
[31] = group: cholinesterase, cholinesterase / cholinesterase / cholinesterase / erythrocyte cholinesterase (che) + cholinesterase / cholinesterase / cholinesterase / …
[32] = group: systemic, systemic / in life observation / body weight / body weight + systemic / in life observation / body weight / body weight gain + systemic / in…
[33] = group: offspring, systemic / in life observation / body weight / offspring (pup) weight
[34] = group: parental, systemic / in life observation / body weight / body weight + systemic / in life observation / clinical signs / abnormal feces + systemic / …
[35] = group: cholinesterase, cholinesterase / cholinesterase / cholinesterase / plasma cholinesterase (che) + cholinesterase / cholinesterase / cholinesterase / brain …
[36] = group: systemic, systemic / in life observation / body weight / body weight + systemic / in life observation / food consumption / food consumption + systemic…
[37] = cholinesterase / cholinesterase / cholinesterase / plasma cholinesterase (che) + cholinesterase / cholinesterase / cholinesterase / brain …
[38] = cholinesterase / cholinesterase / cholinesterase / brain cholinesterase (che)
[39] = cholinesterase / cholinesterase / cholinesterase / brain cholinesterase (che) + cholinesterase / cholinesterase / cholinesterase / …
[40] = group: developmental, systemic / in life observation / body weight / fetal weight
[41] = group: maternal, systemic / in life observation / body weight / body weight gain + systemic / in life observation / clinical signs / defecation + systemic / …
[42] = group: systemic, systemic / in life observation / body weight / body weight gain + systemic / in life observation / clinical signs / pneumonia + systemic / …

How did the LEL (dog [1]) turn out when `O=C1CC=C([O-])N=N1.[K+]` [Maleic hydrazide, potassium salt] was run?
The LEL was 87 mg/kg/day.

And the LOAEL (dog [1])?
The LOAEL was 87 mg/kg/day.

What about the NEL (dog [1]) of the same compound?
The NEL was 25 mg/kg/day.

And the NOAEL (dog [1])?
Its NOAEL is 25 mg/kg/day.

What about the LOAEL (rat [2]; systemic / in life observation / body weight / body weight) of the same compound?
Its LOAEL is 500 mg/kg/day.

What about the LEL (rat [2]; [17]) of the same compound?
Its LEL is 500 mg/kg/day.

And the NOAEL (rat [2]; [17])?
Its NOAEL is 25 mg/kg/day.

What about the NEL (rat [2]; systemic / organ weight / kidney / absolute + systemic / organ weight / liver / absolute + systemic / in life observation / body weight / …) of the same compound?
Its NEL is 25 mg/kg/day.

Which LOAEL (rat [3]; [18]) does the source give for `O=C(NC(=O)c1c(F)cccc1F)Nc1ccc(OC(F)(F)C(F)OC(F)(F)F)c(Cl)c1` (centres undefined) [Novaluron] here?
The LOAEL was 74.2 mg/kg/day.

And the NOAEL (rat [3]; [18])?
The NOAEL was less than 74.2 mg/kg/day.

What about the LEL (rat [3]; [19]) of the same compound?
The LEL was 74.2 mg/kg/day.

And the NEL (rat [3]; [19])?
Its NEL is less than 74.2 mg/kg/day.

And the LOAEL (rat [3]; [20])?
The LOAEL was 74.2 mg/kg/day.

And the NOAEL (rat [3]; [20])?
Its NOAEL is less than 74.2 mg/kg/day.

And the LEL (rat [3]; [21])?
Its LEL is 74.2 mg/kg/day.

And the NEL (rat [3]; [21])?
Its NEL is less than 74.2 mg/kg/day.

And the LEL (rat [3]; [22])?
Its LEL is 895 mg/kg/day.

And the LOAEL (rat [3]; [22])?
The LOAEL was greater than 895 mg/kg/day.

What about the NEL (rat [3]; [22]) of the same compound?
Its NEL is 298 mg/kg/day.

What about the NOAEL (rat [3]; [22]) of the same compound?
The NOAEL was no less than 895 mg/kg/day.

And the LEL (mouse [4])?
Its LEL is 53.4 mg/kg/day.

What about the LOAEL (mouse [4]) of the same compound?
The LOAEL was 53.4 mg/kg/day.

And the NEL (mouse [4])?
Its NEL is 3.6 mg/kg/day.

And the NOAEL (mouse [4])?
The NOAEL was 3.6 mg/kg/day.

What about the LEL (rat [5]) of the same compound?
Its LEL is 8.64 mg/kg/day.

What about the LOAEL (rat [5]) of the same compound?
The LOAEL was 8.64 mg/kg/day.

And the NEL (rat [5])?
The NEL was 4.38 mg/kg/day.

What about the NOAEL (rat [5]) of the same compound?
Its NOAEL is 4.38 mg/kg/day.

And the LOAEL (dog [6]; [23])?
The LOAEL was 100 mg/kg/day.

And the NOAEL (dog [6]; [23])?
Its NOAEL is 10 mg/kg/day.

And the LEL (dog [6]; [24])?
The LEL was 10 mg/kg/day.

What about the NEL (dog [6]; [24]) of the same compound?
The NEL was less than 10 mg/kg/day.

What about the LEL (rat [7]; [25]) of the same compound?
The LEL was 4.7 mg/kg/day.

What about the NEL (rat [7]; [25]) of the same compound?
Its NEL is less than 4.7 mg/kg/day.

What about the LOAEL (rat [7]; [26]) of the same compound?
The LOAEL was 818 mg/kg/day.

What about the NOAEL (rat [7]; [26]) of the same compound?
Its NOAEL is 8.3 mg/kg/day.

What about the LOAEL (rat [8]; systemic / in life observation / clinical signs / anemia) of the same compound?
The LOAEL was 30.6 mg/kg/day.

And the NOAEL (rat [8]; systemic / in life observation / clinical signs / anemia + systemic / hematology / erythrocyte (rbc) count differential / erythrocyte (rbc…)?
Its NOAEL is 1.1 mg/kg/day.

And the LEL (rat [8]; [27])?
Its LEL is 1.4 mg/kg/day.

What about the NEL (rat [8]; [27]) of the same compound?
The NEL was less than 1.4 mg/kg/day.

And the LEL (mouse [9]; systemic / hematology / erythrocyte (rbc) count differential / erythrocyte (rbc) + systemic / hematology / hematocrit (hct) / hematocrit (…)?
Its LEL is 15.2 mg/kg/day.

What about the LOAEL (mouse [9]; systemic / organ weight / spleen / absolute + systemic / organ weight / spleen / relative to body weight) of the same compound?
Its LOAEL is 136 mg/kg/day.

And the NEL (mouse [9]; [28])?
The NEL was 4.7 mg/kg/day.

What about the NOAEL (mouse [9]; [28]) of the same compound?
Its NOAEL is 15.2 mg/kg/day.

Which results are given for `CCOC(=O)CSc1nc(C(C)(C)C)nn1C(=O)N(C)C` [Triazamate]?
LEL (dog [10]; [29]): 0.03 mg/kg/day; LOAEL (dog [10]; [29]): 0.03 mg/kg/day; NEL (dog [10]; [29]): < 0.03 mg/kg/day; NOAEL (dog [10]; [29]): < 0.03 mg/kg/day; LOAEL (dog [10]; [30]): 3.11 mg/kg/day; NOAEL (dog [10]; [30]): 0.31 mg/kg/day; NEL (dog [10]; group: systemic, systemic / in life observation / clinical signs / distended abdomens + systemic / in life observation / clinical signs / vomitting + …): 0.03 mg/kg/day; LEL (dog [10]; group: systemic, systemic / in life observation / clinical signs / vomitting): 0.31 mg/kg/day; LEL (rat [11]; [31]): 11.5 mg/kg/day; LOAEL (rat [11]; [31]): 11.5 mg/kg/day; NEL (rat [11]; [31]): 0.45 mg/kg/day; NOAEL (rat [11]; [31]): 0.45 mg/kg/day; LEL (rat [11]; [32]): 59.2 mg/kg/day; LOAEL (rat [11]; [32]): > 59.2 mg/kg/day; NEL (rat [11]; [32]): 11.5 mg/kg/day; NOAEL (rat [11]; [32]): ≥ 59.2 mg/kg/day; LEL (rat [12]; [31]): 17 mg/kg/day; LOAEL (rat [12]; [31]): 17 mg/kg/day; NEL (rat [12]; [31]): 0.7 mg/kg/day; NOAEL (rat [12]; [31]): 0.7 mg/kg/day; LEL (rat [12]; [33]): 101 mg/kg/day; LOAEL (rat [12]; [33]): 101 mg/kg/day; NEL (rat [12]; [33]): 17 mg/kg/day; NOAEL (rat [12]; [33]): 17 mg/kg/day; LEL (rat [12]; [34]): 101 mg/kg/day; LOAEL (rat [12]; [34]): > 101 mg/kg/day; NEL (rat [12]; [34]): 17 mg/kg/day; NOAEL (rat [12]; [34]): ≥ 101 mg/kg/day; LEL (rat [13]; [29]): 31 mg/kg/day; LOAEL (rat [13]; [29]): 31 mg/kg/day; NEL (rat [13]; [35]): 3 mg/kg/day; NOAEL (rat [13]; [35]): 3 mg/kg/day; LOAEL (rat [13]; group: systemic, systemic / in life observation / body weight / body weight + systemic / in life observation / food consumption / food consumption): 93 mg/kg/day; LEL (rat [13]; [36]): 93 mg/kg/day; NEL (rat [13]; [36]): 31 mg/kg/day; NOAEL (rat [13]; [36]): 31 mg/kg/day; LOAEL (mouse [14]; cholinesterase / cholinesterase / cholinesterase / plasma cholinesterase (che)): 4.55 mg/kg/day; NEL (mouse [14]; [37]): 0.336 mg/kg/day; NOAEL (mouse [14]; [37]): 0.336 mg/kg/day; LEL (mouse [14]; cholinesterase / cholinesterase / cholinesterase / plasma cholinesterase (che) + cholinesterase / cholinesterase / cholinesterase / …): 4.55 mg/kg/day; LEL (dog [15]; [38]): 0.0232 mg/kg/day; LOAEL (dog [15]; [38]): 0.0232 mg/kg/day; NEL (dog [15]; [39]): 0.0172 mg/kg/day; NOAEL (dog [15]; [39]): 0.0172 mg/kg/day; LEL (rabbit; [40]): 0.5 mg/kg/day; LOAEL (rabbit; [40]): > 10 mg/kg/day; NEL (rabbit; [40]): 0.05 mg/kg/day; NOAEL (rabbit; [40]): ≥ 10 mg/kg/day; LEL (rabbit; [41]): 0.5 mg/kg/day; LOAEL (rabbit; [41]): 0.5 mg/kg/day; NEL (rabbit; [41]): 0.05 mg/kg/day; NOAEL (rabbit; [41]): 0.05 mg/kg/day; LEL (mouse [16]; [29]): 6.7 mg/kg/day; LOAEL (mouse [16]; [29]): 6.7 mg/kg/day; NEL (mouse [16]; [35]): 0.13 mg/kg/day; NOAEL (mouse [16]; [35]): 0.13 mg/kg/day; LOAEL (mouse [16]; group: systemic, systemic / in life observation / body weight / body weight gain + systemic / in life observation / clinical signs / pneumonia): 210 mg/kg/day; LEL (mouse [16]; [42]): 210 mg/kg/day; NEL (mouse [16]; [42]): 6.7 mg/kg/day; NOAEL (mouse [16]; [42]): 6.7 mg/kg/day
